Reference: PubChem BioAssay AID248 (DTP/NCI, 2004)
Where “and” joins values, the source holds several entries; their conditions need not be identical. Equal values may be shown once. Toxic doses and inconclusive results are not listed. Cut-off read from the data, not from the text of the source: active = T/C of 150% or more; inactive = T/C below 125%.

Test system: L1210 leukemia ip in BDF1 mice, survival T/C
Test: NCI In Vivo Anticancer Drug Screen. Data for tumor model L1210 Leukemia (intraperitoneal) in B6D2F1 (BDF1) mice
Details: endpoint: mean survival time, higher = longer survival
Procedure, shortened: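 Antitumor effect is assessed in tumor-bearing animals. Survival in the compound arm is compared with a vehicle-dosed control arm and expressed as their quotient.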

[1] = dose: 100.0 mg/kg/injection, schedule: Q01DX001 (ip), vehicle: carboxymethylcellulose (CMC)
[2] = dose: 200.0 mg/kg/injection, schedule: Q01DX001 (ip), vehicle: carboxymethylcellulose (CMC)
[3] = dose: 400.0 mg/kg/injection, schedule: Q01DX001 (ip), vehicle: carboxymethylcellulose (CMC)
[4] = dose: 25.0 mg/kg/injection, schedule: Q01DX009 (ip), vehicle: Klucel (hydroxypropylcellulose) (HPC)
[5] = dose: 50.0 mg/kg/injection, schedule: Q01DX009 (ip), vehicle: Klucel (hydroxypropylcellulose) (HPC)
[6] = dose: 100.0 mg/kg/injection, schedule: Q04DX003 (ip), vehicle: saline with Tween-80
[7] = dose: 200.0 mg/kg/injection, schedule: Q04DX003 (ip), vehicle: saline with Tween-80
[8] = dose: 400.0 mg/kg/injection, schedule: Q04DX003 (ip), vehicle: saline with Tween-80
[9] = dose: 100.0 mg/kg/injection, schedule: Q01DX Z (ip), vehicle: methylcellulose (MC)
[10] = dose: 200.0 mg/kg/injection, schedule: Q01DX Z (ip), vehicle: methylcellulose (MC)
[11] = dose: 100.0 mg/kg/injection, schedule: Q01DX001 (ip), vehicle: saline
[12] = dose: 100.0 mg/kg/injection, schedule: Q04DX003 (ip), vehicle: saline
[13] = dose: 200.0 mg/kg/injection, schedule: Q01DX001 (ip), vehicle: saline
[14] = dose: 200.0 mg/kg/injection, schedule: Q04DX003 (ip), vehicle: saline
[15] = dose: 400.0 mg/kg/injection, schedule: Q01DX001 (ip), vehicle: saline
[16] = dose: 400.0 mg/kg/injection, schedule: Q04DX003 (ip), vehicle: saline

Measured: T/C

O=C1CCC2CC1CCC2=O
inactive: dose: 18.75 mg/kg/injection, schedule: Q01DX009 (ip), vehicle: Klucel (hydroxypropylcellulose) (HPC) 101 % of control | dose: 18.75 mg/kg/injection, schedule: Q04DX003 (ip), vehicle: Klucel (hydroxypropylcellulose) (HPC) 101 % of control | dose: 37.5 mg/kg/injection, schedule: Q01DX009 (ip), vehicle: Klucel (hydroxypropylcellulose) (HPC) 101 % of control | dose: 37.5 mg/kg/injection, schedule: Q04DX003 (ip), vehicle: Klucel (hydroxypropylcellulose) (HPC) 97 % of control | dose: 75.0 mg/kg/injection, schedule: Q01DX009 (ip), vehicle: Klucel (hydroxypropylcellulose) (HPC) 98 % of control | dose: 75.0 mg/kg/injection, schedule: Q04DX003 (ip), vehicle: Klucel (hydroxypropylcellulose) (HPC) 97 % of control

O=C(NCCCl)Nc1ccc(Br)cc1
inactive: [1] 101 % of control | [2] 98 % of control | [3] 115 % of control

CCCCC[C@H](CN(C)C)[C@H](O)/C=C/c1ccc(Cl)cc1
inactive: dose: 12.5 mg/kg/injection, schedule: Q04DX002 (ip), vehicle: saline 113 % of control | dose: 25.0 mg/kg/injection, schedule: Q04DX002 (ip), vehicle: saline 110 % of control | dose: 50.0 mg/kg/injection, schedule: Q04DX002 (ip), vehicle: saline 102 % of control

CC1(C)CC(=O)C(N=Nc2ccccc2)=C(O)C1
inactive: dose: 100.0 mg/kg/injection, schedule: Q04DX002 (ip), vehicle: Klucel (hydroxypropylcellulose) (HPC) 105 % of control | dose: 200.0 mg/kg/injection, schedule: Q04DX002 (ip), vehicle: Klucel (hydroxypropylcellulose) (HPC) 108 % of control | dose: 400.0 mg/kg/injection, schedule: Q04DX002 (ip), vehicle: Klucel (hydroxypropylcellulose) (HPC) 94 % of control

C=C(C)C(=Nc1ccc(Cl)c(Cl)c1)N(C)C
inactive: dose: 55.0 mg/kg/injection, schedule: Q01DX Z (ip), vehicle: methylcellulose (MC) 98 % of control | dose: 83.0 mg/kg/injection, schedule: Q01DX Z (ip), vehicle: methylcellulose (MC) 93 % of control | dose: 125.0 mg/kg/injection, schedule: Q01DX Z (ip), vehicle: methylcellulose (MC) 93 % of control

CCN(CC)CCN(CC)C(=S)Nc1ccccc1
inactive: dose: 12.5 mg/kg/injection, schedule: Q01DX009 (ip), vehicle: Klucel (hydroxypropylcellulose) (HPC) 117 % of control | [4] 109 % of control | [5] 102 % of control

NNC(=O)c1cc2c3ccccc3ncc2c2ccccc12
inactive: [6] 86 % of control | [7] 94 % of control | [8] 108 % of control

CCOC(=O)Nc1cc2c(c(=O)[nH]1)N=C(CN(C)c1ccc(C(=O)OC)cc1)CN2
inactive: dose: 100.0 mg/kg/injection, schedule: Q01DX001 (ip), vehicle: alkali diluted with saline 104 % of control | dose: 200.0 mg/kg/injection, schedule: Q01DX001 (ip), vehicle: alkali diluted with saline 96 % of control | dose: 400.0 mg/kg/injection, schedule: Q01DX001 (ip), vehicle: alkali diluted with saline 102 % of control

CCCNC(C)CC(=O)OCC (stereo unspecified)
inactive: [9] 96 % of control | [10] 94 % of control

CCc1c(O)c2c(c(O)c1C(C)=O)C(=O)c1c(cc(O)c(C(=O)O)c1C(=O)O)C2=O
inactive: [6] 100 % of control | [7] 100 % of control

NC(N)=N/N=C/c1c[nH]c2ccc(OCc3ccccc3)cc12
inactive: dose: 15.0 mg/kg/injection, schedule: Q01DX Z (ip), vehicle: methylcellulose (MC) 94 % of control | dose: 15.0 mg/kg/injection, schedule: Q01DX Z (oral), vehicle: methylcellulose (MC) 90 % of control | dose: 30.0 mg/kg/injection, schedule: Q01DX Z (ip), vehicle: methylcellulose (MC) 96 % of control | dose: 30.0 mg/kg/injection, schedule: Q01DX Z (oral), vehicle: methylcellulose (MC) 87 % of control

COc1ccc(NC(=O)Nc2c(C)cc(C)cc2C)cc1
inactive: dose: 100.0 mg/kg/injection, schedule: Q01DX009 (ip), vehicle: gum acacia 94 % of control | dose: 100.0 mg/kg/injection, schedule: Q04DX003 (ip), vehicle: gum acacia 93 % of control | dose: 200.0 mg/kg/injection, schedule: Q01DX009 (ip), vehicle: gum acacia 96 % of control | dose: 200.0 mg/kg/injection, schedule: Q04DX003 (ip), vehicle: gum acacia 95 % of control | dose: 400.0 mg/kg/injection, schedule: Q01DX009 (ip), vehicle: gum acacia 98 % of control | dose: 400.0 mg/kg/injection, schedule: Q04DX003 (ip), vehicle: gum acacia 87 % of control

CC1(C)N=C(N)N=C(N)N1c1ccc(CCNC(=O)c2ccc(S(=O)(=O)F)cc2)cc1
inactive: dose: 25.0 mg/kg/injection, schedule: Q01DX001 (ip), vehicle: Klucel (hydroxypropylcellulose) (HPC) 90 % of control | dose: 50.0 mg/kg/injection, schedule: Q01DX001 (ip), vehicle: Klucel (hydroxypropylcellulose) (HPC) 96 % of control | dose: 100.0 mg/kg/injection, schedule: Q01DX001 (ip), vehicle: Klucel (hydroxypropylcellulose) (HPC) 90 % of control

Cc1cccc(N=C2C(=O)NC(=O)NC2=O)c1
inactive: [9] 103 % of control | [10] 106 % of control

CC(=O)OC1CCC2(C)C(CCC3C2CCC2(C)C3CC(OC(C)=O)C2C(C)C2=NCC(C)CC2)C1 (stereo unspecified)
inactive: dose: 100.0 mg/kg/injection, schedule: Q04DX003 (ip), vehicle: Klucel (hydroxypropylcellulose) (HPC) 94 % of control | dose: 200.0 mg/kg/injection, schedule: Q04DX003 (ip), vehicle: Klucel (hydroxypropylcellulose) (HPC) 98 % of control | dose: 400.0 mg/kg/injection, schedule: Q04DX003 (ip), vehicle: Klucel (hydroxypropylcellulose) (HPC) 105 % of control

CC(=O)O/N=C(\C)C12CCCCC1C(O)CCC2 (stereo unspecified)
inactive: [11] 91 % of control | [12] 94 % of control | [13] 91 % of control | [14] 101 % of control | [15] 91 % of control | [16] 104 % of control

OC1CCCSC1 (stereo unspecified)
inactive: dose: 100.0 mg/kg/injection, schedule: Q01DX009 (ip), vehicle: saline 102 % of control | [12] 96 % of control | dose: 200.0 mg/kg/injection, schedule: Q01DX009 (ip), vehicle: saline 98 % of control | [14] 100 % of control | dose: 400.0 mg/kg/injection, schedule: Q01DX009 (ip), vehicle: saline 98 % of control | [16] 89 % of control

Cc1cc(=O)[nH]c(Nc2nc3cc(Cl)c(Cl)cc3[nH]2)n1
inactive: dose: 100.0 mg/kg/injection, schedule: Q01DX009 (ip), vehicle: saline with Tween-80 92 % of control | dose: 200.0 mg/kg/injection, schedule: Q01DX009 (ip), vehicle: saline with Tween-80 90 % of control | dose: 400.0 mg/kg/injection, schedule: Q01DX009 (ip), vehicle: saline with Tween-80 97 % of control

Cc1ccc(NC(=O)C2C3C=CC(C3)C2C(=O)Nc2ccc(C)cc2)cc1 (stereo unspecified)
inactive: [6] 96 % of control | [7] 96 % of control | [8] 91 % of control

O=C(O)c1ccc(=O)oc1
inactive: [4] 100 % of control | [5] 87 % of control | dose: 100.0 mg/kg/injection, schedule: Q01DX009 (ip), vehicle: Klucel (hydroxypropylcellulose) (HPC) 90 % of control

Cc1cc(Br)c(O)c(Br)c1
inactive: dose: 75.0 mg/kg/injection, schedule: Q01DX001 (ip), vehicle: Klucel (hydroxypropylcellulose) (HPC) 99 % of control | dose: 150.0 mg/kg/injection, schedule: Q01DX001 (ip), vehicle: Klucel (hydroxypropylcellulose) (HPC) 100 % of control | dose: 300.0 mg/kg/injection, schedule: Q01DX001 (ip), vehicle: Klucel (hydroxypropylcellulose) (HPC) 95 % of control

Nc1nc(SCc2ccccc2)cc(C(=O)O)n1
inactive: dose: 25.0 mg/kg/injection, schedule: Q01DX Z (ip), vehicle: methylcellulose (MC) 92 % of control | dose: 50.0 mg/kg/injection, schedule: Q01DX Z (ip), vehicle: methylcellulose (MC) 101 % of control

Cc1ccc(S(=O)(=O)N2CCCC(O)c3ccccc32)cc1 (stereo unspecified)
inactive: [1] 108 % of control | [2] 106 % of control | [3] 116 % of control

COc1ccc(CCNC2CC3CCC2(C)C3(C)C)cc1OC (stereo unspecified)
inactive: [11] 100 % of control and 107 % of control | [13] 96 % of control | [15] 96 % of control
